The test system of data set [1] is neuroblastoma SH-SY5Y cells. Briefly: neuroprotection in H2O2-treated SH-SY5Y cells (MTS). In kind it is cell-based. To be noted: 50 µM; H2O2 300 µM; 24 h. How it is done:
(§1) The used reference cytostatic drug doxorubicin (DX) decreased cell viability <50% under the same conditions at very low concentrations of 0.2 and 0.05 µM. […] Oxidative damage was induced by very high toxic levels of hydrogen peroxide (H2O2; 300 µM), the popular cell model for PD research, in neuroblastoma SH-SY5Y cell line. […] Salsolinol (SAL) was used at a concentration of 50 µM as the reference compound with the proven neuroprotection activity.
SH-SY5Y cells were seeded in microplate at a concentration of 2.5 × 10^4 cells/well in 100 μL culture medium and cultured for 24 h at 37 C and 5% CO2 to reach 70% confluence. […] (R,S)-salsolinol (purity ≥ 99%) was obtained from Cayman Chemical (Ann Arbor, MI, USA). Next, H2O2 was added at final concentration 300 μM and the cells were placed into the incubator. After 24 h of compounds co-incubation with H2O2, the CellTiter 96®AQueous Non-Radioactive Cell Proliferation Assay (MTS) labeling mixture was added to each well, and the microplates were incubated under the same conditions for 5 h. The absorbance was measured using a microplate reader EnSpire (PerkinElmer, Waltham, MA USA) at 490 nm. All measurements were performed in triplicate, and results are shown as mean ± SD.

The next data set concerns BuChE. Also noted: method as in PMID 28861918. The settings on record: cited from earlier work.
The next data set concerns AChE. Set-up: method as in PMID 28861918. To be noted: cited from earlier work.
The next data set has as its target hH3R. To be noted: read-out: H3R Ki; cited from earlier work.
The nature of data set [2]: toxicity in HEK-293 cells (EZ4U). In kind it is cell-based, human. To be noted: human, HEK-293 cells; reference doxorubicin at 0.2 and 0.05 µM; 48 h incubation; read-out: HEK-293 cell viability. As for the experimental part:
as §1
The HEK-293 cells were seeded at a concentration of 1.5 × 10^4 cells/well in 200 μL culture medium and incubated for 24 h at 37 °C and 5% CO2. […] Then, 25 μL EZ4U labelling mixture (Biomedica, Vienna, Austria) was added and the cells were incubated for 2 h. The spectrophotometric absorbance of the samples was measured using a microplate reader (EnSpire, PerkinElmer, Waltham, MA, USA) at 492 nm. All measurements were performed in triplicate, and results are shown as mean ± SD.

Each structure is given as a SMILES string. pIC50, pKi: −log10 of the molar value. Bounds are passed on as bounds.

Take `CC1NCCc2cc(O)c(O)cc21` (racemic) [SAL, (R,S)-salsolinol, reference compound]: in data set [1], the “cell survival of H2O2-damaged SH-SY5Y cells (neuroprotection)” value is on record as “statistically significant increased cells viability”.
Take `C#CCN(C)Cc1cc2cc(OCCCN3CCCCC3)ccc2n1C` [Contilisant]: the pIC50 (usually −log10 of the IC50, conventionally taken in molar units) was 5.77 in the data set on BuChE and 6.28 in the data set with AChE. In addition, the pKi – broadly, −log10 of the Ki, conventionally taken in molar units – at hH3R was 7.96.
Turning to `COc1cccc2c1C(=O)c1c(O)c3c(c(O)c1C2=O)C[C@@](O)(C(=O)CO)C[C@@H]3O[C@H]1C[C@H](N)[C@H](O)[C@H](C)O1` [doxorubicin (DX), doxorubicin, reference compound], the viability (commonly a per cent measure of how many cells are alive, often set against a control) at 48 h in data set [2] was under 50%.
